Among the data in patent publication US9738614B2, “Malignant and non-malignant disease treatment with Ras antagonists” (PISCES THERAPEUTICS, LLC, priority 2011, dated 2017) are IC50 values, retold here.

Assay [1] relates to LAM cells. Kind of assay: IC50 assay with lymphangioleiomyomatosis (LAM) cells. The class given is cell-based. The following applies: Homo sapiens, 0.1 to 50 μM, read-out: half-maximal inhibition of viability. The method, then:
(§1) U87MG cells were seeded in a 24-well plate, 5000 cells per well, and incubated overnight at 37° C. in serum-free media. The next day they were treated in triplicate with 50 and 100 μM of each test compound (1), (2), (3), (4), and (5) and the reference compound FTS. After five days, the cells were trypsinized (0.5%), stained with trypan blue, and counted to determine the cell number per well. The half-maximal inhibitory concentration (IC50) values were calculated using Multiplex Reader-Fit software made by MiraiBio Group, Hitachi Solutions America, Ltd. In a typical experiment, the control wells averaged 138,000 cells. The results are presented graphically in FIG. 1. The test compounds at 50 μM allowed the following U87MG cell proliferation compared to control: compound (1)—37%, compound (2)—18%, compound (3)—10%, compound (4)—40%, and compound (5)—0%. The reference compound FTS at 50 μM allowed 7% cell proliferation compared to control.
Human lymphangioleiomyomatosis (LAM) cells were subjected to an IC50 assay similar to Example 6 above.

For assay [2], the system named is MCF-7 cells. Kind of assay: IC50 assay with MCF-7 breast cancer cells. The assay is classed as cell-based. The settings on record: Homo sapiens, MCF7, 0.6 to 10 μM, read-out: half-maximal decrease in viability. The method, then: as §1
MCF-7 breast cancer cells, which harbor an activating “K-Ras variant” mutation, were subjected to an IC50 assay similar to Example 6 above. This “K-Ras variant” mutation is in a site that a microRNA binds to, destabilizing the mRNA that encodes Ras. […] MCF-7 cells were grown in concentrations of compound (5) ranging from 0.6 to 10 μM.

Molecules are shown by their SMILES.

For `CC(C)=CCC/C(C)=C/CC/C(C)=C/CSc1ccccc1C1=NCCN1` [compound (5), 2-(2-{[(2E,6E)-3,7,11-trimethyldodeca-2,6,10-trien-1-yl]sulfanyl}phenyl)-4,5-dihydro-1H-imidazole], the IC50 in assay [1] was determined as 4 µM; in assay [2], 2000 nM.
